ChEMBL document CHEMBL1129773, “Novel 1,2-diarylcyclobutenes: Selective and orally active cox-2 inhibitors” (Bioorg Med Chem Lett, 1996)

How the values were obtained:
[1] = Compound was tested for plasma concentration in rats when administered at 20 mg/kg in 1% methocel at 1 hr; format: ADME, organism-based; parameters: dose 20 mg/kg; settings: rat, read-out: Cmax
[2] = molecular target: T1, Prostaglandin G/H synthase 2 (Homo sapiens, UniProt P35354); format: cell-based, CHO
T1 sequence (P35354 whole entry): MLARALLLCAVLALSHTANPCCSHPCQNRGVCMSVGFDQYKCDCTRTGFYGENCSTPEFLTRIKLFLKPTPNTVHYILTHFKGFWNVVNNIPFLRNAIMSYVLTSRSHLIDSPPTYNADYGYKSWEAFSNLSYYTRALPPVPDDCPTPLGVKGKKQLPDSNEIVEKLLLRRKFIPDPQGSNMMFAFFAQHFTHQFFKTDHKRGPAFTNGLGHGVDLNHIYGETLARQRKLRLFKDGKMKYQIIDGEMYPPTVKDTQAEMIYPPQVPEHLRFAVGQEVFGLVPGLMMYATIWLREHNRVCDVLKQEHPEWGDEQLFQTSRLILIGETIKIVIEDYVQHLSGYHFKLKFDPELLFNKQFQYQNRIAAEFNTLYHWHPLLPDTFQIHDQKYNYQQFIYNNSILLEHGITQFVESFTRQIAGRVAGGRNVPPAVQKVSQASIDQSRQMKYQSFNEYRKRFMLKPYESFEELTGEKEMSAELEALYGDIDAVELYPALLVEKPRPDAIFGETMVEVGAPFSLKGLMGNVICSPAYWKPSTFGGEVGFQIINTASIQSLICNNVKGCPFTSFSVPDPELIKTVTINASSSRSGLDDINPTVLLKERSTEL

Rattus norvegicus [3] = test: Compound was tested in vivo for efficacy in the rat paw edema assay upon oral administration.; format: functional
[4] = molecular target: Prostaglandin G/H synthase 1 (Homo sapiens, UniProt P23219)
in vivo = settings: rat, plasma, 20 mg/kg
Description: Compound was tested for plasma concentration in rats when administered at 20 mg/kg in 1% methocel at 2 hr

Rattus norvegicus [5] = organism: Rattus norvegicus; test: animal or person; settings: po, read-out: Inhibition

Prostaglandin G/H synthase 1, sequence (P23219 whole entry): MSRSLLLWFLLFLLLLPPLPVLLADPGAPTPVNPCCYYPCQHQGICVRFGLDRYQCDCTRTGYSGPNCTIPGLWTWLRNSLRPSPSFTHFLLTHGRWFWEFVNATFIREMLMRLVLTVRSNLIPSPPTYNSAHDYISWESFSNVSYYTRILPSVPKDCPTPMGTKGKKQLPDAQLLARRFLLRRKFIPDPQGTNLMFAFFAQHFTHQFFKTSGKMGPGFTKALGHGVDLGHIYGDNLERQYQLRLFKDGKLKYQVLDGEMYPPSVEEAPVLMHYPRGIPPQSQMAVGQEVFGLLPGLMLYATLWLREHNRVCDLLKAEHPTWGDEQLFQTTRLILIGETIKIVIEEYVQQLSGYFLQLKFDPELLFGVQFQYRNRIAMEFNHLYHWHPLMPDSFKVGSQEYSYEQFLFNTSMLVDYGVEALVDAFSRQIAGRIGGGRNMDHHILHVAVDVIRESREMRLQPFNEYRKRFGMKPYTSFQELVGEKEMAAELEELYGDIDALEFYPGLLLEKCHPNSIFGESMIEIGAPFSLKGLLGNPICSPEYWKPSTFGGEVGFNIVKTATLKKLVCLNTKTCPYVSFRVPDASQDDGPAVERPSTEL

In the case of `CC1(C)C(c2ccc(S(C)(=O)=O)cc2)=C(c2ccccc2)/C1=N/O`, the concentration at 1 h [1] is reported as 1800 nM, the IC50 [2] is reported as 0.061 µM and the ED50 (Rattus norvegicus [3]) is reported as 4.2 mg/kg. For the same molecule, the IC50 [4] was 34 µM.

`CC1(C)C(c2ccc(S(C)(=O)=O)cc2)=C(c2ccccc2)C1O` (configuration not stated) gave an IC50 [2] of 0.53 µM and an IC50 [4] of 45 µM.

`CS(=O)(=O)c1ccc(C2=C(c3ccccc3)C(=O)C2)cc1` showed an IC50 [2] of 0.11 µM and an IC50 [4] of 4.4 µM.

Work on `C=C1C(c2ccccc2)=C(c2ccc(S(C)(=O)=O)cc2)C1(C)C` yielded an IC50 [2] of 0.0022 µM and an IC50 [4] of 0.12 µM.

`CC1(C)C(=O)C(c2ccc(F)cc2)=C1c1ccc(S(C)(=O)=O)cc1` showed an IC50 [2] of 0.005 µM and an IC50 [4] of 0.37 µM.

`CS(=O)(=O)c1ccc(-c2cc(Br)sc2-c2ccc(F)cc2)cc1` [DUP-697] showed an ED50 (Rattus norvegicus [3]) of 1.3 mg/kg and a concentration at 2 h (in vivo) of 700 nM.

Molecule `C=C1CC(c2ccc(S(C)(=O)=O)cc2)=C1c1ccccc1` has a concentration at 1 h [1] of 1000 nM, an ED50 (Rattus norvegicus [3]) of 5.5 mg/kg and an IC50 [4] of 0.54 µM.

In the case of `CC1(C)C(=O)C(c2ccccc2)=C1c1ccc(S(C)(=O)=O)cc1`, the concentration at 1 h [1] is reported as 7500 nM and the ED50 (Rattus norvegicus [3]) is reported as 2.4 mg/kg.

`CS(=O)(=O)c1ccc(C2=C(c3ccccc3)C(=O)C23CCCC3)cc1` gave an IC50 [2] of 0.012 µM and an IC50 [4] of 0.5 µM.

For `CS(=O)(=O)c1ccc(C2=C(c3ccc(F)cc3)CC3(CC3)C2)cc1`, the IC50 [4] was 0.14 µM and the inhibition in vivo at 30 mg/kg (Rattus norvegicus [5]) was 38%.

Molecule `CC1(C)C(=O)C(c2ccc(S(C)(=O)=O)cc2)=C1c1ccccc1` has a concentration at 1 h [1] of 8500 nM, an ED50 (Rattus norvegicus [3]) of 2.7 mg/kg and an IC50 [4] of 2 µM.

`CS(=O)(=O)c1ccc(C2=C(c3ccccc3)CC2)cc1` showed an IC50 [2] greater than 5 µM.
